≈ marks a conversion by molar mass, not a printed value.
Legend:
Mycobacterium avium [1] = assay: Antimycobacterial activity against Mycobacterium avium CNCTC My 330/88 after 21 days by micromethod; type: functional; settings: CNCTC My 330/88, 504 h
[2] = system: Mycobacterium tuberculosis; assay: Antimycobacterial activity against Mycobacterium tuberculosis CNCTC My 331/88 after 14 days by micromethod; type: functional; settings: CNCTC My 331/88, 336 h
Mycobacterium avium [3] = assay: Antimycobacterial activity against Mycobacterium avium CNCTC My 330/88 after 14 days by micromethod; type: functional; settings: CNCTC My 330/88, 336 h
Mycobacterium kansasii [4] = assay: Antimycobacterial activity against Mycobacterium kansasii CNCTC My 235/80 after 14 days by micromethod; type: functional; settings: CNCTC My 235/80, 336 h
Mycobacterium kansasii [5] = assay: Antimycobacterial activity against Mycobacterium kansasii 6509/96 clinical isolate after 14 days by micromethod; type: functional; settings: 6509/96, 336 h
Candida albicans [6] = assay: Antifungal activity against Candida albicans ATCC 44859 after 24 hrs by broth microdilution method; type: functional; settings: ATCC 44859, 24 h
Candida albicans [7] = assay: Antifungal activity against Candida albicans ATCC 44859 after 48 hrs by broth microdilution method; type: functional; settings: ATCC 44859, 48 h
Candida tropicalis [8] = assay: Antifungal activity against Candida tropicalis 156 after 24 hrs by broth microdilution method; type: functional; settings: Candida tropicalis, 156, 24 h
Candida tropicalis [9] = assay: Antifungal activity against Candida tropicalis 156 after 48 hrs by broth microdilution method; type: functional; settings: Candida tropicalis, 156, 48 h
Pichia kudriavzevii [10] = assay: Antifungal activity against Candida krusei E28 after 24 hrs by broth microdilution method; type: functional; settings: E28, 24 h
Pichia kudriavzevii [11] = assay: Antifungal activity against Candida krusei E28 after 48 hrs by broth microdilution method; type: functional; settings: E28, 48 h
Nakaseomyces glabratus [12] = assay: Antifungal activity against Candida glabrata 20/I after 24 hrs by broth microdilution method; type: functional
Nakaseomyces glabratus [13] = assay: Antifungal activity against Candida glabrata 20/I after 48 hrs by broth microdilution method; type: functional
Trichosporon asahii [14] = assay: Antifungal activity against Trichosporon asahii 1188 after 24 hrs by broth microdilution method; type: functional; settings: Trichosporon asahii, 1188, 24 h
Trichosporon asahii [15] = assay: Antifungal activity against Trichosporon asahii 1188 after 48 hrs by broth microdilution method; type: functional; settings: Trichosporon asahii, 1188, 48 h
Aspergillus fumigatus [16] = assay: Antifungal activity against Aspergillus fumigatus 231 after 24 hrs by broth microdilution method; type: functional; settings: Aspergillus fumigatus, 231, 24 h
Aspergillus fumigatus [17] = assay: Antifungal activity against Aspergillus fumigatus 231 after 48 hrs by broth microdilution method; type: functional; settings: Aspergillus fumigatus, 231, 48 h
Lichtheimia corymbifera [18] = assay: Antifungal activity against Absidia corymbifera 272 after 24 hrs by broth microdilution method; type: functional; settings: Lichtheimia corymbifera, 272, 24 h
Lichtheimia corymbifera [19] = assay: Antifungal activity against Absidia corymbifera 272 after 48 hrs by broth microdilution method; type: functional; settings: Lichtheimia corymbifera, 272, 48 h
[20] = system: Trichophyton mentagrophytes; assay: Antifungal activity against Trichophyton mentagrophytes 445 after 72 hrs by broth microdilution method; type: functional; settings: Trichophyton mentagrophytes, 445, 72 h
[21] = system: Trichophyton mentagrophytes; assay: Antifungal activity against Trichophyton mentagrophytes 445 after 120 hrs by broth microdilution method; type: functional; settings: Trichophyton mentagrophytes, 445, 120 h
Staphylococcus aureus [22] = assay: Antibacterial activity against Staphylococcus aureus ATCC 6538 after 24 hrs by broth microdilution method; type: functional; settings: ATCC 6538, 24 h
Staphylococcus aureus [23] = assay: Antibacterial activity against Staphylococcus aureus ATCC 6538 after 48 hrs by broth microdilution method; type: functional; settings: ATCC 6538, 48 h
Staphylococcus aureus [24] = assay: Antibacterial activity against methicillin-resistant Staphylococcus aureus HK5996/08 after 24 hrs by broth microdilution method; type: functional; settings: HK5996/08, 24 h
Staphylococcus aureus [25] = assay: Antibacterial activity against methicillin-resistant Staphylococcus aureus HK5996/08 after 48 hrs by broth microdilution method; type: functional; settings: HK5996/08, 48 h
[26] = system: Staphylococcus epidermidis; assay: Antibacterial activity against Staphylococcus epidermidis HK6996/08 after 24 hrs by broth microdilution method; type: functional; settings: HK6996/08, 24 h
[27] = system: Staphylococcus epidermidis; assay: Antibacterial activity against Staphylococcus epidermidis HK6996/08 after 48 hrs by broth microdilution method; type: functional; settings: HK6996/08, 48 h
Enterococcus sp. [28] = assay: Antibacterial activity against Enterococcus sp. HK14365/08 after 24 hrs by broth microdilution method; type: functional; settings: HK14365/08, 24 h
Enterococcus sp. [29] = assay: Antibacterial activity against Enterococcus sp. HK14365/08 after 48 hrs by broth microdilution method; type: functional; settings: HK14365/08, 48 h
Escherichia coli [30] = assay: Antibacterial activity against Escherichia coli ATCC 8739 after 24 hrs by broth microdilution method; type: functional; settings: ATCC 8739, 24 h
Escherichia coli [31] = assay: Antibacterial activity against Escherichia coli ATCC 8739 after 48 hrs by broth microdilution method; type: functional; settings: ATCC 8739, 48 h
Klebsiella pneumoniae [32] = assay: Antibacterial activity against Klebsiella pneumoniae HK11750/08 after 24 hrs by broth microdilution method; type: functional; settings: HK11750/08, 24 h
Klebsiella pneumoniae [33] = assay: Antibacterial activity against Klebsiella pneumoniae HK11750/08 after 48 hrs by broth microdilution method; type: functional; settings: HK11750/08, 48 h
Klebsiella pneumoniae [34] = assay: Antibacterial activity against extended spectrum beta-lactamase producing Klebsiella pneumoniae HK14368/08 after 24 hrs by broth microdilution method; type: functional; settings: HK14368/08, 24 h
Klebsiella pneumoniae [35] = assay: Antibacterial activity against extended spectrum beta-lactamase producing Klebsiella pneumoniae HK14368/08 after 48 hrs by broth microdilution method; type: functional; settings: HK14368/08, 48 h
Pseudomonas aeruginosa [36] = assay: Antibacterial activity against Pseudomonas aeruginosa ATCC 9027 after 24 hrs by broth microdilution method; type: functional; settings: ATCC 9027, 24 h
Pseudomonas aeruginosa [37] = assay: Antibacterial activity against Pseudomonas aeruginosa ATCC 9027 after 48 hrs by broth microdilution method; type: functional; settings: ATCC 9027, 48 h
[38] = Cytotoxicity against human HuH7 cells assessed as cell viability at 30 uM after 48 hrs by MTS assay relative to control; type: cell-based, Huh-7; settings: read-out: Activity
Huh-7 = assay: Cytotoxicity against human HuH7 cells assessed as cell viability after 48 hrs by MTS assay; type: cell-based; settings: Huh-7, 48 h
A-431 = assay: Cytotoxicity against human A431 cells assessed as cell viability after 48 hrs by MTS assay; type: cell-based; settings: A-431, 48 h
[39] = Cytotoxicity against human A431 cells assessed as cell viability at 30 uM after 48 hrs by MTS assay relative to control; type: cell-based, A-431; settings: read-out: Activity
MDCK = assay: Cytotoxicity against MDCK cells assessed as cell viability after 48 hrs by MTS assay; type: cell-based; settings: Canis lupus familiaris
[40] = Cytotoxicity against MDCK cells assessed as cell viability at 30 uM after 48 hrs by MTS assay relative to control; type: cell-based, Canis lupus familiaris; settings: dog, read-out: Activity
HepG2 = assay: Cytotoxicity against human HepG2 cells assessed as cell viability after 48 hrs by MTS assay; type: cell-based; settings: HepG2, 48 h
[41] = Cytotoxicity against human HepG2 cells assessed as cell viability at 30 uM after 48 hrs by MTS assay relative to control; type: cell-based; settings: read-out: Activity
[42] = Selectivity index, ratio of IC50 for human HepG2 cells to MIC for Mycobacterium tuberculosis; type: toxicity; settings: read-out: Selectivity Index
[43] = system: Mycobacterium tuberculosis; assay: Antimycobacterial activity against Mycobacterium tuberculosis CNCTC My 331/88 after 21 days by micromethod; type: functional; settings: CNCTC My 331/88, 504 h
Mycobacterium kansasii [44] = assay: Antimycobacterial activity against Mycobacterium kansasii CNCTC My 235/80 after 21 days by micromethod; type: functional; settings: CNCTC My 235/80, 504 h
Mycobacterium kansasii [45] = assay: Antimycobacterial activity against Mycobacterium kansasii CNCTC My 235/80 after 7 days by micromethod; type: functional; settings: CNCTC My 235/80, 168 h
Mycobacterium kansasii [46] = assay: Antimycobacterial activity against Mycobacterium kansasii 6509/96 clinical isolate after 21 days by micromethod; type: functional; settings: 6509/96, 504 h
Mycobacterium kansasii [47] = assay: Antimycobacterial activity against Mycobacterium kansasii 6509/96 clinical isolate after 7 days by micromethod; type: functional; settings: 6509/96, 168 h
[48] = system: Mycobacterium tuberculosis; assay: Antimycobacterial activity against Mycobacterium tuberculosis by broth microdilution method; type: functional

O=[N+]([O-])c1cc(-c2nnc(SCc3ccccc3Cl)o2)cc([N+](=O)[O-])c1
MIC (Mycobacterium avium [1]): 8 µM (≈ 3.14 µg/mL)
MIC [2]: 0.03 µM (≈ 0.0118 µg/mL)
MIC (Mycobacterium avium [3]): 4 µM (≈ 1.57 µg/mL)
MIC (Mycobacterium kansasii [4]): 0.125 µM (≈ 0.0491 µg/mL)
MIC (Mycobacterium kansasii [5]): 0.06 µM (≈ 0.0236 µg/mL)
MIC (Candida albicans [6]): > 500 µM
MIC (Candida albicans [7]): > 500 µM
MIC (Candida tropicalis [8]): > 500 µM
MIC (Candida tropicalis [9]): > 500 µM
MIC (Pichia kudriavzevii [10]): > 500 µM
MIC (Pichia kudriavzevii [11]): > 500 µM
MIC (Nakaseomyces glabratus [12]): > 500 µM
MIC (Nakaseomyces glabratus [13]): > 500 µM
MIC (Trichosporon asahii [14]): > 500 µM
MIC (Trichosporon asahii [15]): > 500 µM
MIC (Aspergillus fumigatus [16]): > 500 µM
MIC (Aspergillus fumigatus [17]): > 500 µM
MIC (Lichtheimia corymbifera [18]): > 500 µM
MIC (Lichtheimia corymbifera [19]): > 500 µM
MIC [20]: > 500 µM
MIC [21]: > 500 µM
MIC (Staphylococcus aureus [22]): > 500 µM
MIC (Staphylococcus aureus [23]): > 500 µM
MIC (Staphylococcus aureus [24]): > 500 µM
MIC (Staphylococcus aureus [25]): > 500 µM
MIC [26]: > 500 µM
MIC [27]: > 500 µM
MIC (Enterococcus sp. [28]): > 500 µM
MIC (Enterococcus sp. [29]): > 500 µM
MIC (Escherichia coli [30]): > 500 µM
MIC (Escherichia coli [31]): > 500 µM
MIC (Klebsiella pneumoniae [32]): > 500 µM
MIC (Klebsiella pneumoniae [33]): > 500 µM
MIC (Klebsiella pneumoniae [34]): > 500 µM
MIC (Klebsiella pneumoniae [35]): > 500 µM
MIC (Pseudomonas aeruginosa [36]): > 500 µM
MIC (Pseudomonas aeruginosa [37]): > 500 µM
viability at 48 h, 30 µM [38]: 144%
IC50 (Huh-7): > 30 µM
IC50 (A-431): > 30 µM
viability at 48 h, 30 µM [39]: 91%
IC50 (MDCK): > 30 µM
viability at 48 h, 30 µM [40]: 115%
IC50 (HepG2): > 30 µM
viability at 48 h, 30 µM [41]: 129%
selectivity ratio [42]: > 1000
MIC [43]: 0.03 µM (≈ 0.0118 µg/mL)
MIC (Mycobacterium kansasii [44]): 0.125 µM (≈ 0.0491 µg/mL)
MIC (Mycobacterium kansasii [45]): 0.06 µM (≈ 0.0236 µg/mL)
MIC (Mycobacterium kansasii [46]): 0.125 µM (≈ 0.0491 µg/mL)
MIC (Mycobacterium kansasii [47]): 0.06 µM (≈ 0.0236 µg/mL)

CCC1Cn2cc([N+](=O)[O-])nc2O1 (configuration not stated)
MIC [48]: 0.2 µM (≈ 0.0366 µg/mL)

From ChEMBL document CHEMBL4002566, “S-substituted 3,5-dinitrophenyl 1,3,4-oxadiazole-2-thiols and tetrazole-5-thiols as highly efficient antitubercular agents” (Eur J Med Chem, 2017)
